How the values were obtained:
[1] = tested on: molluscum contagiosum (MC) lesions; assay: Study 1: randomized, vehicle-controlled, double-blind trial in pediatric subjects with molluscum contagiosum, efficacy; format: in vivo, human (pediatric subjects)
Procedure: Aldara® Cream, commercially available via prescription and manufactured by 3M Health Care Limited, Loughborough LE11 1EP England, and distributed by Graceway Pharmaceuticals, LLC, Bristol, Tenn. 37620, is evaluated in two randomized, vehicle-controlled, double-blind trials involving 702 pediatric subjects with molluscum contagiosum (MC) (470 are exposed to Aldara; median age 5 years, range 2-12 years). Subjects apply Aldara® Cream or vehicle 3 times weekly for up to 16 weeks. Complete clearance (no MC lesions) is assessed at Week 18. […] Similar to the studies conducted in adults, the most frequently reported adverse reaction from 2 studies in children with molluscum contagiosum is application site reaction. Adverse events which occur more frequently in Aldara®-treated subjects as compared with vehicle-treated subjects generally resemble those seen in studies in indications approved for adults and also included otitis media (5% Aldara vs. 3% vehicle) and conjunctivitis (3% Aldara® vs. 2% vehicle). Erythema is the most frequently reported local skin reaction. The severe local skin reactions that are reported by Aidara®-treated subjects in the pediatric studies include erythema (28%), edema (8%), scabbing/crusting (5%), flaking/scaling (5%), erosion (2%) and weeping/exudate (2%).
(§1) More particularly, the objective is to evaluate the efficacy of imiquimod cream, 5% (imiquimod) for the treatment of molluscum contagiosum (MC) lesions in pediatric subjects when the cream was applied 3 times per week (3×/wk) for up to 16 weeks. The efficacy of imiquimod is evaluated by assessing MC lesion clearance. The primary efficacy parameter is complete clearance of all MC lesions (complete clinical resolution) from treatment initiation to the week 18/efficacy visit. Secondary efficacy parameters include partial clearance, defined as ≧50% reduction from the baseline lesion count, and the change in total lesion count. Time to complete clearance is also compared between treatment groups. The secondary objective is to evaluate the safety of imiquimod. Safety assessments are conducted throughout the study. Safety was assessed through incidence and severity of adverse events (AEs); local skin reactions (LSRs) of erythema, edema, erosion/ulceration, weeping/exudates, scabbing/crusting, and flaking/scaling/dryness; skin quality assessments; vital signs measurements; general physical examinations; hematology laboratory tests; and concomitant medication use.
This is a randomized, vehicle-controlled, double-blind, parallel group, study that is conducted in children aged 2 to 12 years of age who had ≧2 clinically verified MC lesions. Enrollment is monitored to ensure at least 50% of subjects had at least 5 MC lesions, at least 50% of subjects are under 6 years of age, and a sufficient number of subjects enrolled with periocular lesions. Subjects are randomized 2:1 (imiquimod: vehicle) and apply study cream 3×/wk for up to 16 weeks (or until complete resolution of all MC lesions) to all target MC lesions. Subjects who weigh <25 kg apply up to 2 sachets of study cream, while subjects who weigh ≧25 kg apply up to 3 sachets. At the screening/treatment initiation visit, MC lesions and application area locations are recorded on a body diagram. […] At each study visit, MC lesions are counted and recorded, and safety procedures are performed. […]

[2] = Systemic absorption of imiquimod across affected skin of 22 subjects with extensive MC (serum levels, hematology); format: in vivo, human (subjects aged 2 to 12 years)
Procedure: Systemic absorption of imiquimod across the affected skin of 22 subjects aged 2 to 12 years with extensive MC involving at least 10% of the total body surface area is observed after single and multiple doses at a dosing frequency of 3 applications per week for 4 weeks. The investigator determines the dose applied, i.e., either 1, 2 or 3 packets per dose, based on the size of the treatment area and the subject's weight. […] Children aged 2-5 years receive doses of 12.5 mg (one packet) or 25 mg (two packets) of imiquimod and have median multiple-dose peak serum drug levels of approximately 0.2 or 0.5 ng/ml, respectively. Children aged 6-12 years receive doses of 12.5 mg, 25 mg, or 37.5 mg (three packets) and have median multiple dose serum drug levels of approximately 0.1, 0.15, or 0.3 ng/ml, respectively. Among the 20 subjects with evaluable laboratory assessments, the median WBC count decreases by 1.4*10^9/L and the median absolute neutrophil count decreases by 1.42*10^9/L.

[3] = Safety assessment in the vehicle-controlled MC study (N=323); format: in vivo, human (children aged 2 to 12 years)
Procedure: as §1
This is a randomized, vehicle-controlled, double-blind, parallel group, study that is conducted in children aged 2 to 12 years of age who had ≧2 clinically verified MC lesions. Enrollment is monitored to ensure at least 50% of subjects had at least 5 MC lesions, at least 50% of subjects are under 6 years of age, and a sufficient number of subjects enrolled with periocular lesions. Subjects are randomized 2:1 (imiquimod: vehicle) and apply study cream 3×/wk for up to 16 weeks (or until complete resolution of all MC lesions) to all target MC lesions. […] At the screening/treatment initiation visit, MC lesions and application area locations are recorded on a body diagram. […] At each study visit, MC lesions are counted and recorded, and safety procedures are performed. […] MC lesions are treated 3×/wk for up to 16 weeks, or until determined that all MC lesions are cleared. […]

[4] = 20 subjects with evaluable laboratory assessments

CC(C)Cn1cnc2c(N)nc3ccccc3c21 [imiquimod, 1-isobutyl-1H-imidazo[4,5-c]-quinolin-4-amine]
partial clearance rate (≧50% reduction from baseline lesion count) at week 18 ([1]; ITT, 108/217, vehicle 45.3%, p=0.4416): 49.8%
complete clearance rate (no MC lesions) at Week 18 ([1]; Study 1, ITT, 52/217, cream applied 3 times weekly for up to 16 weeks, vehicle 26% (28/106)): 24.0%
efficacy versus vehicle cream with respect to complete and partial clearance of MC lesions ([1]; dosed 3×/wk for up to 16 weeks): not statistically significantly more effective than vehicle cream
distribution in time to complete clearance versus vehicle ([1]; generalized Wilcoxon Test, p=0.7830): not significantly different
median percent reduction in MC lesions at week 18 ([1]; vehicle 37.3%): 48.1%
decrease in median WBC count [2, 4]: 1.4e+09 L⁻¹
decrease in median absolute neutrophil count [2, 4]: 1.42e+09 L⁻¹
median multiple-dose peak serum drug level ([2]; children aged 2-5 years, 12.5 mg (one packet)): approximately 0.2 ng/ml
peak serum imiquimod concentrations following both single and multiple doses ([2]; children, topical imiquimod (summary statement)): < 2 ng/mL
Cmax ([2]; human, in vivo, 25 mg, single person, 2 packets of study drug per dose, read-out: Cmax after multiple dosing): 9.66 ng/mL
median WBC count decreased by ([2]; summary statement): about 1.4 *109/L
median absolute neutrophil count decreased by ([2]; summary statement): about 1.42 *109/L
overall safety conclusion ([3]; children ages 2 to 12 with MC, dosed 3×/wk for up to 16 weeks): safe
subjects discontinued from the treatment period due to AEs ([3]; none severe in intensity, vehicle 1): 2 subjects
subjects reporting at least 1 AE considered possibly or probably related to study drug ([3]; vehicle 19.8%, p=0.013): 33.6%
